Patent US11136348B2, “Furostan-3-ol derivatives as skeletal muscle hypertrophic agents” (EMMYON, INC., priority 2015, dated 2021)

Experiments:
[1] = test system: Male C57BL/6 mice, tibialis anterior (TA) muscle; assay: Mouse model of muscular atrophy: unilateral tibialis anterior immobilization; type: in vivo; details: 10 mg/kg i.p. twice a day for 7 days; 6 days TA immobilization; immobilized TA weight normalized to contralateral mobile TA; 12-13 mice
Procedure: Compounds of the invention were also tested in vivo in an established mouse model for muscular atrophy. Male C57BL/6 mice (8-10 weeks old) were administered i.p. injections of vehicle (corn oil) or 10 mg/kg test compound twice a day for 7 days. After 1 day of i.p. injections, one tibialis anterior (TA) muscle in each mouse was immobilized with a metal clip to induce skeletal muscle atrophy, as described previously (Dyle et al., Journal of Biological Chemistry 289: 14913-14924, 2014). In each mouse, the contralateral TA muscle remained mobile and served as a non-atrophied intrasubject control. After 7 days of i.p injections (6 days of unilateral TA immobilization), bilateral TA muscles were harvested and weighed. In each mouse, the amount of skeletal muscle loss in the immobilized TA muscle was determined by normalizing the weight of the immobilized TA muscle to the weight of the contralateral mobile (control) TA muscle. The data below are means ±SEM from 12-13 mice per condition. table: […]

C2C12 skeletal myotubes = assay: Total cellular protein content in C2C12 skeletal myotubes (BCA); type: cell-based, Mouse; details: 48 h incubation, vs vehicle (0.1% DMSO)
Procedure: The compounds were tested in a well-established in vitro model of skeletal muscle, namely fully differentiated, post-mitotic C2C12 skeletal myotubes. Mouse C2C12 myoblasts may be obtained from ATCC (CRL-1772) and maintained at 37° C. and 5% CO2 in Dulbecco's modified Eagle's medium (ATCC #30-2002) containing antibiotics (100 units/mL penicillin, […] streptomycin sulfate) and 10% (v/v) fetal bovine serum (FBS). Myoblasts were set up for experiments on day 0 in 6-well plates at a density of 2.5×10^5 cells/well. On day 2, myoblasts were induced to differentiate into myotubes by replacing 10% FBS with 2% horse serum (HS). On day 7, myotubes were rinsed once with PBS, and then 2% HS was replaced with 10% FBS. The vehicle (0.1% DMSO) or varying concentrations of test compound were added directly to the media. After 48 h incubation, myotube protein content and size were measured.
To determine myotube protein content, myotubes were washed with ice cold PBS, scraped into lysis buffer (10 mM Tris-HCl, pH 7.6, 100 mM NaCl, and 1% (w/v) SDS, complete Mini protease inhibitor cocktail (Roche), and a 1:100 dilution of phosphatase inhibitor cocktail 3 (Sigma)), and then lysed with 10 passes through a 22-gauge needle. An aliquot of each myotube lysate sample was then used to determine protein concentration by the BCA kit (Pierce). […] To determine myotube size, myotubes were subjected to immunofluorescence staining with anti-troponin primary antibody and a fluorescent secondary antibody. Myotubes were then imaged on an Olympus IX-71 microscope equipped with a DP-70 camera and epifluorescence filters. Image analysis was performed using ImageJ software.

## CC1=C(CC[C@H](C)CN)O[C@H]2C[C@H]3[C@@H]4CC[C@H]5C[C@@H](O)CC[C@]5(C)[C@H]4CC[C@]3(C)[C@@H]12.Cl [Example 3, (2aS,4S,6aS,6bS,8aS,8bS,11aS,12aS,12bR)-10-((S)-4-Amino-3-methylbutyl)-6a,8a,9-trimethyl-2,2a,3,4,5,6,6a,6b,7,8,8a,8b,11a,12,12a,12b-hexadecahydro-1H-naphtho[2′,1′:4,5]indeno[2,1-b]furan-4-ol hydrochloride]
[1]
  % Muscle Loss (Mean ± SEM): 8.3 ± 1.9%
C2C12 skeletal myotubes; 0.03 μM
  Percent Change in Total Protein: 3.8 ± 1.8%
C2C12 skeletal myotubes; 0.1 μM
  Percent Change in Total Protein: 6.7 ± 2.4 %
C2C12 skeletal myotubes; 0.3 μM
  Percent Change in Total Protein: 9.2 ± 2.4 %
C2C12 skeletal myotubes; 1 μM
  Percent Change in Total Protein: 16.4 ± 1.3 %
C2C12 skeletal myotubes; 3 μM
  Percent Change in Total Protein: 17.9 ± 0.7 %
